# Reference: the SangsterLogP compilation
# Assay: not given
row,logP,Structure (SMILES)
1,4.45,COc1cc(C(=O)Nc2ccc3nn(C4CCCCC4)nc3c2)cc(OC)c1OC

# Assay: from Caliendo, G., Novellino, E., Santagada, V., Silipo, C., & Vittoria, A. (1991). Structure-activity relationships in a set of antimicrobial. In QSAR, Rational Approaches to the Design of Bioactive …
row,logP,Structure (SMILES)
1,3.87,O=C(Nc1ccc2nn(C3CCCCC3)nc2c1)C(Cl)Cl
2,5.85,O=C(Nc1ccc2nn(C3CCCCC3)nc2c1)c1ccc(Cl)c(Cl)c1
3,2.44,Cn1nc2ccc(NC(=O)c3ccccc3)cc2n1
4,4.57,O=C(Nc1ccc2nn(C3CCCCC3)nc2c1)c1ccc([N+](=O)[O-])cc1
5,2.38,COc1cc(C(=O)Nc2ccc3nn(C)nc3c2)cc(OC)c1OC
6,1.22,Cn1nc2ccc(NC(=O)CCl)cc2n1
7,4.45,O=C(Nc1ccc2nn(C3CCCCC3)nc2c1)c1ccccc1
8,3.13,Cn1nc2ccc(NC(=O)c3ccc(Cl)cc3)cc2n1
9,2.53,Cn1nc2ccc(NC(=O)c3ccc([N+](=O)[O-])cc3)cc2n1
